{"source": "paper PMC9004346", "about": "“Development of small cyclic peptides targeting the CK2α/β interface” (Chemical Communications (Cambridge, England), 2022)", "experiment": "Serum stability test", "type": "in vitro ADME", "conditions": "20% human serum in PBS, 37 °C, monitored over 24 h", "procedure": "1.6.3 Serum stability test\n500 μL of PBS buffer supplemented with 20% (v/v) of human serum was allocated into an Eppendorf tube and temperature kept at 37 °C for 15 minutes before commencing the experiment. 5 µL of the peptide from 10 mM stock solution in DMSO was added. Caffeine was added as an internal standard (10 μL of a 15 mg/mL solution in MQ water). At specific intervals, 50 µL of the reaction mixture was taken and quenched with 100 µL of a 1:1 mixture of 96% Ethanol:DMSO. The suspension was spun at 13400 g for 10 minutes. 100 μL of the supernatant was analysed using C-18 HPLC with an eluting gradient 5-95% MeCN (0.05% TFA) in water (0.05% TFA) over 15 minutes (90 μL injection volume).\nPercentage of intact starting peptide was monitored over 24 h (calculated as the ratio of the area of […]\nthe peak corresponding to the intact peptide to the area of the peak of caffeine). The experiment was […]\n1 M. M. Wiedmann, Y. S. Tan, Y. Wu, S. Aibara, W. Xu, H. F. Sore, C. S. Verma, L. Itzhaki, M.\nStewart, J. D. Brenton and D. R. Spring, Angew. Chemie Int. Ed., 2017, 56, 524–529.\n3 G. T. Potter, G. C. Jayson, G. J. Miller and J. M. Gardiner, J. Org. Chem., 2016, 81, 3443–3446.\n4 J. Iegre, P. Brear, D. J. Baker, Y. S. Tan, E. L. Atkinson, H. F. Sore, D. H. O’ Donovan, C. S. Verma,\n7 C. Puig Duran, F. Albericio Palomera, M. Gongora Benitez, M. Paradis Bas, L. Miret Casals, I. […]", "note": "*1 amine or outer side, *2 acyl side, *3 side chain or, on linkers, in order; H or OH if unused. Where a SMILES comes first, the peptide text is derived from it. Bridges are numbered along the chain shown (N, C = ends). [ ]: non-standard residue; d: D form. Trp(2-yl) = O=C([C@H](Cc1c([*:3])[nH]c2ccccc12)N[*:1])[*:2]; hCys = N[C@@H](CCS)C(=O)O", "data": [{"compound": "CC(=O)N[C@H]1CCSc2[nH]c3ccccc3c2C[C@@H](C(N)=O)NC(=O)[C@H](CCCCN)NC(=O)[C@H](Cc2ccccc2)NC(=O)CNC(=O)[C@H](Cc2ccc(O)cc2)NC(=O)[C@H](CC(C)C)NC(=O)[C@H](CCCNC(=N)N)NC1=O", "note": "[Peptide P8C9, (hC)C9RLYGFKWC9] (Ac-[hCys]RLYGFK[Trp(2-yl)]-NH2; thioether 1-8)", "values": [{"measurement": "Serum stability (in words)", "value": "fully stable in serum over 24 h"}]}]}
